Test system: Fibroblast
Test: Incucyte cell viability with human fibroblast; note: filed as whole numbers so only -1 and 0 and 1 occur
Format: toxicity, cell-based
Settings: 10 µM, compound concentration 10 uM
[1] = 0 h, replicate number 1, timepoint 0 hours
[2] = 6 h, replicate number 1, timepoint 6 hours
[3] = 12 h, replicate number 1, timepoint 12 hours
[4] = 18 h, replicate number 1, timepoint 18 hours
[5] = 24 h, replicate number 1, timepoint 24 hours
[6] = 12 h, replicate number 2, timepoint 12 hours
[7] = 0 h, replicate number 2, timepoint 0 hours
[8] = 24 h, replicate number 2, timepoint 24 hours
[9] = 6 h, replicate number 2, timepoint 6 hours
[10] = 18 h, replicate number 2, timepoint 18 hours

Cl.O=c1c2cccn2c2ccccc2n1CCCN1CCC(c2ccc(Cl)cc2)CC1
Growth Rate [1]: 1 | Growth Rate [2]: 0 | Growth Rate [3]: 0 | Growth Rate [4]: 0 | Growth Rate [5]: 0

COc1cccc2cc(-c3nc([C@H]4CC[C@H](C(=O)O)CC4)n4ncnc(N)c34)[nH]c12 [OSI-027]
Growth Rate [1]: 0 | Growth Rate [3]: 0 | Growth Rate [6]: 1 | Growth Rate [4]: 0 | Growth Rate [5]: 0

CCCS(=O)(=O)Nc1ccc(F)c(C(=O)c2c[nH]c3ncc(Cl)cc23)c1F [PLX-4720]
Growth Rate [1]: 1 | Growth Rate [7]: 0 | Growth Rate [2]: 0 | Growth Rate [3]: 0 | Growth Rate [4]: 0 | Growth Rate [5]: 0

Cc1ccc2nc(NCCN)c3ncc(C)n3c2c1.O=C(O)C(F)(F)F.O=C(O)C(F)(F)F
Growth Rate [7]: 0 | Growth Rate [2]: 0 | Growth Rate [3]: 0 | Growth Rate [4]: 0 | Growth Rate [5]: 0

O=C1NC(=O)C(c2cnc3ccccn23)=C1c1cn2c3c(cc(F)cc13)CN(C(=O)N1CCCCC1)CC2 [LY-2090314]
Growth Rate [7]: 1 | Growth Rate [2]: 0 | Growth Rate [3]: 0 | Growth Rate [4]: 0 | Growth Rate [5]: 0

Cl.Oc1ccc2c3c1O[C@H]1c4[nH]c5c(c4C[C@@]4(O)[C@@H](C2)N(CC2CC2)CC[C@]314)C[C@@]1(O)[C@H]2Cc3ccc(O)c4c3[C@@]1(CCN2CC1CC1)[C@H]5O4
Growth Rate [1]: 0 | Growth Rate [7]: 1 | Growth Rate [2]: 0 | Growth Rate [3]: 0 | Growth Rate [6]: 1 | Growth Rate [4]: 0 | Growth Rate [5]: 0 | Growth Rate [8]: 1

COC(=N)c1nc2ccc3ncnc(Nc4ccc(OC)cc4F)c3c2s1
Growth Rate [1]: 0 | Growth Rate [3]: 1 | Growth Rate [4]: 1 | Growth Rate [5]: 0

CN1C2CCC1CC(OC(c1ccc(F)cc1)c1ccc(F)cc1)C2.Cl (stereo not drawn)
Growth Rate [2]: 1 | Growth Rate [9]: 0 | Growth Rate [3]: 1 | Growth Rate [6]: 0 | Growth Rate [4]: 1 | Growth Rate [10]: 0 | Growth Rate [5]: 0

S=C(NCCCc1c[nH]cn1)NCCCN(Cc1ccc(Cl)c(Cl)c1)c1ccc(Br)cn1
Growth Rate [1]: 0 | Growth Rate [2]: 0 | Growth Rate [3]: 0 | Growth Rate [4]: 0 | Growth Rate [5]: 0

Cc1cn(-c2cc(NC(=O)c3ccc(C)c(Nc4nccc(-c5cccnc5)n4)c3)cc(C(F)(F)F)c2)cn1 [NILOTINIB]
Growth Rate [1]: 0 | Growth Rate [2]: 0 | Growth Rate [3]: 0 | Growth Rate [4]: 0 | Growth Rate [5]: 0

CCOc1cc2ncc(C#N)c(Nc3ccc(OCc4ccccn4)c(Cl)c3)c2cc1NC(=O)/C=C/CN(C)C [NERATINIB]
Growth Rate [1]: 0 | Growth Rate [3]: 1 | Growth Rate [4]: 0 | Growth Rate [5]: 0 | Growth Rate [8]: 1

CCNc1cc(N[C@H]2CC[C@H](O)CC2)nc(Nc2ccc3c(ccn3Cc3ccccc3)c2)n1
Growth Rate [2]: 0 | Growth Rate [3]: 0 | Growth Rate [4]: 0 | Growth Rate [5]: 0

COc1cc(N2CCC(N3CCN(C)CC3)CC2)ccc1Nc1ncnc(Nc2ccccc2S(=O)(=O)C(C)C)n1 [ASP-3026]
Growth Rate [7]: 0 | Growth Rate [2]: 0 | Growth Rate [3]: 0 | Growth Rate [4]: 0 | Growth Rate [5]: 0

CCN1CCN(Cc2ccc(Nc3ncc(F)c(-c4cc(F)c5nc(C)n(C(C)C)c5c4)n3)nc2)CC1.CS(=O)(=O)O
Growth Rate [1]: 0 | Growth Rate [4]: 1 | Growth Rate [5]: 0 | Growth Rate [8]: 1

CCn1c(=O)c(-c2ccc(-c3cncs3)cc2Cl)cc2cnc(Nc3ccc(N4CCN(C)CC4)cc3)nc21
Growth Rate [1]: 0 | Growth Rate [4]: 1 | Growth Rate [5]: 0

O=C(Nc1ccc(-c2ccnc(Nc3ccc(N4CCOCC4)cc3)n2)cc1)[C@@H]1CCCN1
Growth Rate [1]: 0 | Growth Rate [4]: 1 | Growth Rate [5]: 0

CCn1cc(-c2ccnc3[nH]c(-c4cccc(CN(C)C)c4)cc23)c(-c2ccc(NC(=O)N(C)C)cc2)n1 [GSK-1070916]
Growth Rate [1]: 0 | Growth Rate [2]: 1 | Growth Rate [3]: 0 | Growth Rate [6]: 1 | Growth Rate [4]: 0 | Growth Rate [5]: 0

Cc1cc(C)c(S(=O)(=O)N(Cc2ccc(-c3cccc(S(C)(=O)=O)c3)cc2)Cc2ccc(C(F)(F)F)o2)c(C)c1
Growth Rate [1]: 1 | Growth Rate [7]: 0 | Growth Rate [2]: 1 | Growth Rate [3]: 0 | Growth Rate [4]: 0 | Growth Rate [5]: 0

CCN1CCN(c2ccc(Nc3cc(N(C)C(=O)Nc4c(Cl)c(OC)cc(OC)c4Cl)ncn3)cc2)CC1 [INFIGRATINIB]
Growth Rate [1]: 0 | Growth Rate [2]: 1 | Growth Rate [3]: 1 | Growth Rate [4]: 0 | Growth Rate [5]: 0

COc1cc(N2CCN(C)CC2)ccc1Nc1ncc2c(n1)N(C)c1ccccc1C(=O)N2C
Growth Rate [1]: 0 | Growth Rate [3]: 0 | Growth Rate [4]: 1 | Growth Rate [5]: 1

O=C(Nc1ccc(Cl)cc1)Nc1cccc(-c2cccc(N3CCCC3)n2)c1
Growth Rate [1]: 0 | Growth Rate [2]: 0 | Growth Rate [3]: 0 | Growth Rate [4]: 0 | Growth Rate [5]: 0

CCN(CC)S(=O)(=O)Nc1cccc(-c2ccc3c(NC(=O)C4CC4)n[nH]c3c2)c1
Growth Rate [2]: 0 | Growth Rate [3]: 0 | Growth Rate [4]: 0 | Growth Rate [5]: 0

Cn1nc(C(F)(F)F)cc1-c1cnc(N2CCc3cc(S(=O)(=O)Nc4c(F)cc(Cl)cc4F)cc(N4CCCC4=O)c32)nc1 [TP-020]
Growth Rate [1]: 0 | Growth Rate [2]: 1 | Growth Rate [3]: 0 | Growth Rate [6]: 1 | Growth Rate [4]: 1 | Growth Rate [10]: 0 | Growth Rate [5]: 0

O=C(Nc1cccnn1)N1CCC(=Cc2cccc(Oc3ccc(C(F)(F)F)cn3)c2)CC1
Growth Rate [1]: 0 | Growth Rate [2]: 0 | Growth Rate [3]: 0 | Growth Rate [4]: 0 | Growth Rate [5]: 0 | Growth Rate [8]: 1

CCCn1c(=O)c2[nH]c(-c3cnn(Cc4cccc(C(F)(F)F)c4)c3)nc2n(CC)c1=O [GS 6201]
Growth Rate [1]: 0 | Growth Rate [4]: 1 | Growth Rate [5]: 1

CNC(=O)c1ccc(Nc2nc(OC3CCCC3)c3c(-c4ccc5nc(C)oc5c4)c[nH]c3n2)c(OC)c1
Growth Rate [1]: 0 | Growth Rate [9]: 0 | Growth Rate [3]: 0 | Growth Rate [4]: 0 | Growth Rate [5]: 0

Cc1ccc(C(=O)Nc2cccc(C(F)(F)F)c2)cc1Nc1nc(-c2cccnc2)nc2c1cnn2C
Growth Rate [2]: 0 | Growth Rate [3]: 0 | Growth Rate [4]: 0 | Growth Rate [5]: 0

Cn1nc(C(=O)NCc2ccc(C(=O)O)cc2)cc1-c1ccc2[nH]ccc2c1 [BI 4395]
Growth Rate [1]: 0 | Growth Rate [9]: 0 | Growth Rate [3]: 1 | Growth Rate [4]: 1 | Growth Rate [5]: 1

C=C1/C(=C\C=C2/CCC[C@]3(C)[C@@H]([C@H](C)/C=C/[C@H](C)C(C)C)CC[C@@H]23)C[C@@H](O)C[C@@H]1O [DOXERCALCIFEROL]
Growth Rate [1]: 0 | Growth Rate [9]: 0 | Growth Rate [3]: 1 | Growth Rate [6]: 0 | Growth Rate [4]: 1 | Growth Rate [10]: 0 | Growth Rate [5]: 0

Cl.O=C(c1ccc(Nc2nccc(-c3cc4ccccc4s3)n2)cc1)N1CCC(N2CCCC2)CC1
Growth Rate [1]: 0 | Growth Rate [2]: 0 | Growth Rate [3]: 0 | Growth Rate [4]: 0 | Growth Rate [5]: 0

CN1CCN(C(=O)C(C)(C)c2ccc(C(=O)Nc3cn4cc(-c5cc(C(C)(C)C)cc(C(C)(C)C)c5)ccc4n3)cc2)CC1 [T3-CLK-N]
Growth Rate [7]: 0 | Growth Rate [4]: 1 | Growth Rate [5]: 1

CCOc1cc(C(=O)N2CCC(N3CCN(C)CC3)CC2)ccc1Nc1ncc2c(n1)N(C1CCCC1)c1ccccc1C(=O)N2C
Growth Rate [7]: 0 | Growth Rate [2]: 1 | Growth Rate [3]: 0 | Growth Rate [4]: 0 | Growth Rate [10]: 1 | Growth Rate [5]: 0 | Growth Rate [8]: 1

CCc1cccc(CC)c1NC(=O)c1nn(C)c2c1CCc1cnc(Nc3ccc(N4CCN(C)CC4)cc3OC)nc1-2
Growth Rate [7]: 1 | Growth Rate [2]: 0 | Growth Rate [3]: 0 | Growth Rate [4]: 0 | Growth Rate [5]: 0

O=C(Cc1ccc(-c2ccc(OCCN3CCOCC3)cc2)cn1)NCc1ccccc1 [TIRBANIBULIN]
Growth Rate [2]: 0 | Growth Rate [3]: 0 | Growth Rate [4]: 0 | Growth Rate [5]: 0

COCC(=O)NC/C=C/c1ccc2ncnc(Nc3ccc(Oc4ccc(C)nc4)c(C)c3)c2c1 [CP-724714]
Growth Rate [1]: 0 | Growth Rate [9]: 1 | Growth Rate [3]: 1 | Growth Rate [6]: 0 | Growth Rate [4]: 1 | Growth Rate [10]: 0 | Growth Rate [5]: 1 | Growth Rate [8]: 0

Reference: ChEMBL document CHEMBL4689842, “EUbOPEN Chemogenomics Library wave 1” (2021)
